Values quoted from earlier work, collected in article PMC3082041 (Cancer Chemotherapy and Pharmacology, 2010).

System: patients
Details: treated with Imatinib; cited from earlier work

Cc1ccc(NC(=O)c2ccc(CN3CCN(C)CC3)cc2)cc1Nc1nccc(-c2cccnc2)n1 [Imatinib]
patients with grade 3/4 edema: 7%
